Experimental data from doi:10.1101/2021.05.03.442520v1 (biorxiv, 2021).

Molecular target: TMPRSS2 (Homo sapiens, UniProt O15393)
Assay: fluorogenic pericellular protease assay, transfected Vero E6 cells
Type: cell-based
Conditions: Vero C1008, read-out: % inhibition at 10 nM

Chain of TMPRSS2 (O15393 whole entry): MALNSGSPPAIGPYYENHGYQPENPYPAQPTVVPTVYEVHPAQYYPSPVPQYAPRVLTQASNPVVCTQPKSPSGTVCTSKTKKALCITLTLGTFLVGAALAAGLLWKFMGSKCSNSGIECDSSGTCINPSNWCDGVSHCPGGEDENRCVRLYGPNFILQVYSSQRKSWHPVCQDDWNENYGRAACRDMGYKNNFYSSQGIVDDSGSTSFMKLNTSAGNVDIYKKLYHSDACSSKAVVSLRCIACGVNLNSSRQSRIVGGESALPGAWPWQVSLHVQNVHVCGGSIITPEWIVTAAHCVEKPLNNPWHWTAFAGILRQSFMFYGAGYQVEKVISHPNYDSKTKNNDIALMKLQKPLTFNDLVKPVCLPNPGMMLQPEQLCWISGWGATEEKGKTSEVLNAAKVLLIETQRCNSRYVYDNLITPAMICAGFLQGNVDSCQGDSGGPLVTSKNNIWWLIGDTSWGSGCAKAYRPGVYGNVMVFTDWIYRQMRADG

Compound | inhibition at 0.01 µM
N=C(N)NCCCCC(=O)N[C@@H](CCC(N)=O)C(=O)N[C@@H](CC1CCCCC1)C(=O)N[C@@H](CCCNC(=N)N)C(=O)c1nc2ccccc2s1 [N-0678] | 5%
N=C(N)NCCC[C@H](NC(=O)[C@H](Cc1ccccc1)NC(=O)[C@H](CCC(N)=O)NC(=N)N)C(=O)c1nc2ccccc2s1 [N-1296] | 16%
